Assay results published in patent US20090137550A1, “Novel Compounds” (Glaxo Group Limited, priority 2005, published 2009).
Blank lines part the entries; values can stand above or below the compound they belong to.

How the values were obtained:
[1] = tested on: LPS-stimulated cytokine production (IL-1beta and/or TNFalpha); assay: LPS-Stimulated Cytokine Production in Human Whole Blood; format: cell-based; details: 50 ng/ml LPS, 4 hour incubation, IL-1beta and/or TNFalpha by ELISA
Experimental: Assay: Test compound concentrations were prepared at 10× concentrations and LPS prepared at 1 ug/ml (final conc. of 50 ng/ml LPS) and added in 50 uL volumes to 1.5 mL eppendorf tubes. Heparinized human whole blood was obtained from healthy volunteers and was dispensed into eppendorf tubes or multiwell plates containing compounds and LPS in 0.2-0.4 mL volumes and the tubes incubated at 37 C. In some studies, compound was incubated with blood for up to 30 min prior to addition of LPS. Following a 4 hour incubation, the tubes or plates were centrifuged to remove cells and plasma was withdrawn and frozen at −80 C. Cytokine measurement: IL-Ibeta and/or TNFalpha were quantified using a standardized ELISA, or similar technology. Concentrations of IL-1beta or TNFalpha were determined from standard curves of the appropriate cytokine and IC50 values for test compound (concentration that inhibited 50% of LPS-stimulated cytokine production) were calculated by linear regression analysis.

[2] = tested on: TNF-stimulated IL8 production by human neutrophils; assay: TNF-Stimulated IL-8 Production from Human Neutrophils; format: cell-based; details: TNF 100 ng/ml, approximately 20 hrs, IL-8 by ELISA
[3] = tested on: IL-6, IL-8, GM-CSF, RANTES and COX-2; details: a number of different cell types; cited from earlier work
[4] = tested on: fibronectin and thrombospondin; details: Laping et al., 2002; cited from earlier work

IC50 (concentration that inhibited 50% of LPS-stimulated cytokine production) [1]: active
IC50, TNF-stimulated IL-8 production [2]: active
SMILES: Cc1cc(F)ccc1-c1nc(NCCNC(N)=NC#N)nc2c1ccc(=O)n2-c1c(F)cccc1F [Example 10]

SMILES: C[S+]([O-])c1ccc(-c2nc(-c3ccncc3)c(-c3ccc(F)cc3)[nH]2)cc1 (centres unmarked) [SB-203580]
decreasing the synthesis of pro-inflammatory proteins including IL-6, IL-8, GM-CSF, RANTES and COX-2 [3]: effective

SMILES: COc1nccc(-c2c(-c3ccc(F)cc3)ncn2C2CCNCC2)n1 [SB-242235]
inhibition of TGF-β-induced increases in fibronectin and thrombospondin [4]: inhibited

SMILES: Fc1ccc(-c2nc3n(c2-c2ccncc2)CCS3)cc1 [SK&F 86002]
decreasing the synthesis of pro-inflammatory proteins including IL-6, IL-8, GM-CSF, RANTES and COX-2 [3]: effective
